Two compounds from PMC7581941, “Schedule-Dependent Synergy Between the Histone Deacetylase Inhibitor Belinostat and the Dihydrofolate Reductase Inhibitor Pralatrexate in T-and B-cell Lymphoma Cells in vitro” (Frontiers in Cell and Developmental Biology, 2020) can be followed below.

In general, IC50 refers to the point on the concentration scale where inhibition reaches its midpoint.

The subject of one assay is SUDHL-5 cells. Kind of assay: Cell growth inhibition (MTT) and median-drug effect analysis, SUDHL-5. The note with it: Homo sapiens, SU-DHL-5, read-out: IC50 (50% growth inhibition); SUDHL 5, 72 h exposure. Type of assay: cell-based. As to the method: (§1) Cells were treated immediately with a drug dilution series in cell culture medium (75 μL/well). After an incubation period of approximately 72 h, growth in the 96-wells plates was assessed by adding 15 μL MTT solution (stock solution 5 mg/ml in PBS, final concentration 0.5 mg/ml in culture medium) to each well. After incubation for 3 h in the 5% CO2 incubator with 100% humidity at 37°C, 150 μL acidified 2-propanol was added to the plates to dissolve the formazan crystals. The yellow-colored MTT stock solution is taken up and reduced to a purple formazan in living cells, which directly correlates to the amount of viable cells. As final step, the plates were measured at 540 (or 492) nm by the SPECTRAfluor spectrophotometer.
Drug interaction in combination experiments was evaluated using the median-drug effect analysis using CalcuSyn software ([Bijnsdorp et al., 2011]). In order to evaluate combination indexes [CI] from different experiments, the CI values at Fraction Affected (FA) values >0.5 (preferably around 0.5, 0.75, and 0.9) were averaged for each specific experiment. The means of the separate experiments were subsequently averaged so that a mean ± Standard Error of the Mean (SEM) was calculated from three or more separate experiments. […] Drug combinations were designed based on the standard CalcuSyn approach in which a series of drug concentrations were combined in a fixed molar ratio, based on the IC50 of each drug. A variation of this approach was a sequential scheduling in which cells were exposed for 72 h to BLS, while in the combination PLX was added after 24 h and cells were exposed from 24 to 72 h. In the non-fixed ratio approach one drug was used at the IC25 (concentration that results in 25% growth inhibition) and the other drug was added in a concentration range.

A further assay deals with Karpas-299. In words: Cell growth inhibition (MTT) and median-drug effect analysis, Karpas-299. Format: cell-based. The note with it: Homo sapiens, read-out: IC50 (50% growth inhibition); Karpas-299, 72 h exposure. As to the method:
as §1
(§2) Drug interaction in combination experiments was evaluated using the median-drug effect analysis using CalcuSyn software ([Bijnsdorp et al., 2011]). In order to evaluate combination indexes [CI] from different experiments, the CI values at Fraction Affected (FA) values >0.5 (preferably around 0.5, 0.75, and 0.9) were averaged for each specific experiment. The means of the separate experiments were subsequently averaged so that a mean ± Standard Error of the Mean (SEM) was calculated from three or more separate experiments. […]

The test system of assay [1] is HT cells. In words: FACS propidium iodide staining: cell cycle distribution and cell death, HT. Format: cell-based. As to the method: (§3) Propidium iodide staining (DNA staining) was used to determine cell cycle distribution and the extent of cell death. Cells (120,000 per well in a 24-wells plate) were exposed to PLX or BLS or the combination for 24, 48, or 72 h. Cells were harvested, suspended in 1.0 ml phosphate buffered saline/1% Bovine serum albumin and fixed with 70% ethanol. After centrifugation the pellet was resuspended in hypotonic propidium iodide (0.1 mg/ml), Triton-X-100 (0.1%), sodium citrate (1 mg/ml) and RNAse A (0.5 mg/ml) (final concentrations in saline) and stored in dark on ice for 30 min ([De Wilt et al., 2012]). DNA content of the cells to determine cell cycle effects and cell kill was analyzed by a FACScalibur (Becton Dickinson Immunocytometry Systems, San Jose, CA, United States) with an acquisition of 10,000 events as described previously ([De Wilt et al., 2012]).

Assay [2] deals with SUDHL-4 cells. In words: FACS propidium iodide staining: cell death, SUDHL-4. Type of assay: cell-based. The note with it: drugs at their IC50, untreated 5.0%. As to the method: as §3
In the next assay the test system is Hut-29. Kind of assay: Cell growth inhibition (MTT) and median-drug effect analysis, Hut-29. Type of assay: cell-based. The note with it: read-out: IC50 (50% growth inhibition); Hut-29, 72 h exposure. As to the method:
as §1, §2

The test system of another assay is CCRF-CEM. In words: Cell growth inhibition (MTT), CCRF-CEM. Type of assay: cell-based, human. The note with it: Homo sapiens, read-out: IC50 (50% growth inhibition); CCRF-CEM, 72 h exposure. Here is the method:
as §1

The subject of assay [3] is HT cells. In words: Cell growth inhibition (cell counting) and median-drug effect analysis, HT. Type of assay: cell-based. The note with it: for IC50: HT.
Assay [4] relates to SUDHL-4 cells. Kind of assay: Cell growth inhibition (cell counting) and median-drug effect analysis, SUDHL-4. Type of assay: cell-based. The note with it: Homo sapiens, SU-DHL-4, read-out: IC50 (50% growth inhibition); SUDHL 4, 72 h exposure.
The test system of another assay is lymphoma cell lines. In words: Cell growth inhibition and median-drug effect analysis, panel of lymphoma cell lines. Format: cell-based. Here is the method:
(§4) Cells were plated in 96-wells flat bottom plates, at 3,000 or 6,000 cells per well in culture medium (75 μL/well) or in 24-wells plates (60,000 cells/well) for the counting assays for which a Coulter Counter was used. Cells were treated immediately with a drug dilution series in cell culture medium (75 μL/well). […] After incubation for 3 h in the 5% CO2 incubator with 100% humidity at 37°C, 150 μL acidified 2-propanol was added to the plates to dissolve the formazan crystals. The yellow-colored MTT stock solution is taken up and reduced to a purple formazan in living cells, which directly correlates to the amount of viable cells. As final step, the plates were measured at 540 (or 492) nm by the SPECTRAfluor spectrophotometer. […] Drug interaction in combination experiments was evaluated using the median-drug effect analysis using CalcuSyn software ([Bijnsdorp et al., 2011]). […] The means of the separate experiments were subsequently averaged so that a mean ± Standard Error of the Mean (SEM) was calculated from three or more separate experiments. […] Drug combinations were designed based on the standard CalcuSyn approach in which a series of drug concentrations were combined in a fixed molar ratio, based on the IC50 of each drug. A variation of this approach was a sequential scheduling in which cells were exposed for 72 h to BLS, while in the combination PLX was added after 24 h and cells were exposed from 24 to 72 h.

The subject of another assay is Jeko-1. In words: Cell growth inhibition (MTT) and median-drug effect analysis, Jeko-1. Type of assay: cell-based. The note with it: Homo sapiens, read-out: IC50 (50% growth inhibition); Jeko-1, 72 h exposure. Here is the method:
as §4, with “A variation of this approach was a sequential scheduling in which cells were exposed for 72 h to BLS, while in the combination PLX was added after 24 h and cells were exposed from 24 to 72 h.” left out

A further assay deals with T1, FRα (Homo sapiens, UniProt P15328).
T1 construct: endogenous in cells; host or cells: KB cells
Kind of assay: Intact cell binding assay, displacement of radio-active folic acid from KB cells. The note with it: inverse ratio of compound to displace 50% of radio-active folic acid, folic acid set at 1. As to the method:
(§5) In order to determine to which extent PLX was a substrate for either the folate receptors, RFC or PCFT we used competition experiments in cell lines overexpressing either transporter ([Westerhof et al., 1995a], [b]; [Jansen et al., 1997]; [Ifergan et al., 2008]; [Lasry et al., 2008]; [van der Heijden et al., 2009]). For FRα and FRβ, we used an intact cell binding assay for competitive binding with KB cells and CHO-FRβ cells, respectively. […] For RFC we used a competition assay with 5 μM [^3H]-l-LV in CCRF-CEM/7A cells (RFC+++) for 2 min at 37°C. CEM-7A cells overexpress the RFC 30-fold over wild-type CCRF-CEM cells ([Jansen et al., 1990], [1997]).

For a further assay, the target named is T2, FRβ (Homo sapiens, UniProt P14207).
T2 construct: expressed in transfected cells; host or cells: CHO-FRβ cells
Kind of assay: Intact cell binding assay, displacement of radio-active folic acid from CHO-FRβ cells. The note with it: folic acid set at 1. Here is the method: as §5

Read-outs that look alike come from different tables or passages of the source.

T2 sequence (P14207 17-255, species assumed): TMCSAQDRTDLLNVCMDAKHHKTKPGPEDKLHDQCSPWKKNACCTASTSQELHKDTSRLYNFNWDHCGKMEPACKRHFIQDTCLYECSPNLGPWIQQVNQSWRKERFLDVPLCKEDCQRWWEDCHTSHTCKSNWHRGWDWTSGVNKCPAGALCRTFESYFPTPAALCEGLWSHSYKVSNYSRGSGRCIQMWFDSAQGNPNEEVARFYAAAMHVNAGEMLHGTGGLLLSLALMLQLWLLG
T1 sequence (P15328 25-257): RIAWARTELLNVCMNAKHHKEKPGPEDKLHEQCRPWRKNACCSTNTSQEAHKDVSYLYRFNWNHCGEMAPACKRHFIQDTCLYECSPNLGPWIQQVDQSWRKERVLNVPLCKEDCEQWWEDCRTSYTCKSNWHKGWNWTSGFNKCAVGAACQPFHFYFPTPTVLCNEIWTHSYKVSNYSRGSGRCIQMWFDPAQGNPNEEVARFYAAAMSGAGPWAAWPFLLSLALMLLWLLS

With `O=C(/C=C/c1cccc(S(=O)(=O)Nc2ccccc2)c1)NO` [BLS, Belinostat], the IC50 is 112 ± 15 nM with SUDHL-5 cells; 203 ± 21 nM with Karpas-299; 97 ± 12 nM in the assay on Hut-29; 95.8 ± 16.1 nM with CCRF-CEM; around 220 nM in the assay with HT cells [3] (Homo sapiens, 72 h, read-out: IC50 (50% growth inhibition), HT, 72 h exposure); 223 ± 23 nM in the assay with HT cells [3] (read-out: IC50 (50% growth inhibition), 72 h exposure). The IC50 was 72.3 ± 5 nM in the assay on SUDHL-4 cells [4]; 72 to 233 nM in the assay with lymphoma cell lines (72 hr exposure, panel of cell lines, read-out: IC50, range over the cell lines); 103 ± 11 nM in the assay with Jeko-1. For the same compound, the “accumulation of cells in the S-phase” value in the assay on HT cells [1] (72 h exposure at IC50) is recorded as “more pronounced”. In addition, the “accumulation of cells in the sub-G1 phase (cell death)” value in the assay with HT cells [1] (drugs at their IC50, untreated 3.5%) turned out to be 21%; in the assay with SUDHL-4 cells [2], 15.5%. The “IC25 (concentration that results in 25% growth inhibition)” value in the assay on HT cells [3] (HT cells, 72 h) was around 100 nM. Further, the “effect of l-LV on sensitivity to BLS” value in the assay with lymphoma cell lines (data not shown) was “did not affect sensitivity”.

For the compound `Nc1nc(=O)c2nc(CNc3ccc(C(=O)N[C@@H](CCC(=O)O)C(=O)O)cc3)cnc2[nH]1` [FA, Folic acid], the FR-α relative affinity at FRα came to 1. The compound further showed an FRβ relative affinity at FRβ of 1.
